Values after ≈ are worked out from the molar mass of the structure shown.
Test: Solubility in water at 25° C.
Conditions: 25° C.

| Compound | Solubility in water at 25° C. [mg/mL] |
| --- | --- |
| Cc1cc(C)c(C(=O)P(=O)(c2ccccc2)c2ccccc2)c(C)c1 [TMDPO, 2,4,6-trimethylbenzoykliphenylphosphine oxide, reference compound] | < 1 |
| Cc1cc(C)c(C(=O)P(=O)(O)C(=O)c2c(C)cc(C)cc2C)c(C)c1 [BAPO-ONa, sodium bis(2,4,6-trimethylbenzoyl)phosphine oxide] | 60 |
| CC12CCC(C(=O)C1=O)C2(C)C (stereo not drawn) [CQ, d1-camphorquinone] | 1.7 (≈ 10.2 mM) |

Same assay, conditions: 25 °C

| Compound | solubility [mg/mL] |
| --- | --- |
| Cc1cc(C)c(C(=O)P(=O)(O)c2ccccc2)c(C)c1 [Li-TPO, lithium (2,4,6-trimethylbenzoyl)phenylphosphine oxide] | 45 (≈ 156 mM) |

Same assay, conditions: 25 °C, Solubility in water at 25° C.

| Compound | solubility [mg/mL] |
| --- | --- |
| Cc1cc(C)c(C(=O)P(=O)(O)c2ccccc2)c(C)c1 [Na-TPO] | 28 (≈ 97.1 mM) |
| Cc1cc(C)c(C(=O)P(=O)(C(=O)c2c(C)cc(C)cc2C)c2ccccc2)c(C)c1 [BAPO, bis(2,4,6-trimethylbenzoyl)phenylphosphine oxide, reference compound] | < 1 |

Other lines, results leading:

| solubility [mg/mL] | Compound |
| --- | --- |
| < 10 | COCCOCCOC(=O)Nc1c(C)cc(C)c(C(=O)P(=O)(c2ccccc2)c2ccccc2)c1C [TMDPO-A1, reference compound] |
| < 10 | COCCOCCOCC(=O)Nc1c(C)cc(C)c(C(=O)P(=O)(C(=O)c2c(C)cc(C)c(NC(=O)COCCOCCOC)c2C)c2ccccc2)c1C [BAPO-A1, reference compound] |
| 52 (≈ 145 mM) | Cc1cc(C)c(C(=O)P(=O)(O)C(=O)c2c(C)cc(C)cc2C)c(C)c1 [BAPO-OLi, lithium bis(2,4,6-trimethylbenzoyl)phosphine oxide] |
